Test results: publication doi:10.1101/2025.05.08.652848v1 (biorxiv, 2025)

Legend:
Assay type in all cases: binding
[1] = target: T1, RXRA:PPARG LBD heterodimer (Homo sapiens, UniProt P37231); test: TR-FRET NCOR1 ID2 peptide recruitment
T1 sequence (P37231 231-505): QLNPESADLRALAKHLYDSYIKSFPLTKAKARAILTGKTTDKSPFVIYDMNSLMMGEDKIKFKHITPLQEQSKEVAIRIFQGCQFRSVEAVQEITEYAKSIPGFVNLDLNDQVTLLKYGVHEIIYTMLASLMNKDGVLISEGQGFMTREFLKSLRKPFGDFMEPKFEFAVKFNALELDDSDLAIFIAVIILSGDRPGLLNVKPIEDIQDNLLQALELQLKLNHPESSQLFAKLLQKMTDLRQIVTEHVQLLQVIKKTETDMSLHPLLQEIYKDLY
T1 sequence (P19793 228-462 partner): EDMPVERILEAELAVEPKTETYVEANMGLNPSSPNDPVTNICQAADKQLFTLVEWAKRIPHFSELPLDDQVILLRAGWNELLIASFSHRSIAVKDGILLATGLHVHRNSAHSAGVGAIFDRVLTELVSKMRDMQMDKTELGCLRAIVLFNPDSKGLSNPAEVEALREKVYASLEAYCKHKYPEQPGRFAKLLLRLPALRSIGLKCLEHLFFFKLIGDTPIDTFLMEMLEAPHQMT

[2] = target: T2, PPARA/RXRA LBD heterodimer (Homo sapiens, UniProt Q07869); test: TR-FRET NCOR1 ID2 peptide recruitment
T2 sequence (Q07869 196-468 limits assumed): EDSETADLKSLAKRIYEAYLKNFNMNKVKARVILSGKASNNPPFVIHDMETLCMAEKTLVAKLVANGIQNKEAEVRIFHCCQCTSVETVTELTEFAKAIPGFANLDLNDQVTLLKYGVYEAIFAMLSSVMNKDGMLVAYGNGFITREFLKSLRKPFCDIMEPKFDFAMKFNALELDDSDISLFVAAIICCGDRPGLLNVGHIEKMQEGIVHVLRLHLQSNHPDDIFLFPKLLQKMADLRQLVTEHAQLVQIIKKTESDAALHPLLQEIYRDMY
T2 sequence (P19793 228-462 partner): T1 sequence (P19793 228-462 partner)

[3] = target: T3, PPARD/RXRA LBD heterodimer (Homo sapiens, UniProt Q03181); test: TR-FRET NCOR1 ID2 peptide recruitment
T3 sequence (Q03181 171-441 limits assumed): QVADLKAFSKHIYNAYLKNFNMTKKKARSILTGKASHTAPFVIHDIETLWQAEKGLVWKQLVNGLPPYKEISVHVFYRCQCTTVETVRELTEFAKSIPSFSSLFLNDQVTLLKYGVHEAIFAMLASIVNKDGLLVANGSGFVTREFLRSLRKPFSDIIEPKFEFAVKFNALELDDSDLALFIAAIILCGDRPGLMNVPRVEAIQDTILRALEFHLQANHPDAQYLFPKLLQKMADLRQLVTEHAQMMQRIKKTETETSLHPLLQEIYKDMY
T3 sequence (P19793 228-462 partner): T1 sequence (P19793 228-462 partner)

[4] = target: T1, RXRA:PPARG LBD heterodimer; test: TR-FRET MED1 LxxLL peptide blockade

| Structure (SMILES) | EC50 [1] | EC50 [2] | EC50 [3] | IC50 [4] |
| --- | --- | --- | --- | --- |
| O=C(Nc1ccccc1)c1cc([N+](=O)[O-])ccc1Cl [GW9662] |  |  |  | 0.097 ± 0.038 µM |
| N#Cc1ccc(Cl)c(-c2cc(=O)c3c(F)cc(F)cc3[nH]2)c1 [FTX-6746, 4-Chloro-3-(5,7-difluoro-4-oxo-1,4-dihydroquinolin-2-yl)benzonitrile] | 0.69 ± 0.07 µM |  |  | 0.74 ± 0.16 µM |
| N#Cc1ccc(Br)c(-c2cc(=O)c3c(F)cc(F)cc3[nH]2)c1 [FTX-6713, 4-bromo-3-(5,7-difluoro-4-oxo-1,4-dihydroquinolin-2-yl)benzonitrile] | 0.07 ± 0.008 µM |  |  |  |

More lines, now with the values ahead:

| EC50 [1] | EC50 [2] | EC50 [3] | IC50 [4] | Structure (SMILES) |
| --- | --- | --- | --- | --- |
| 5 µM |  |  |  | N#Cc1ccc(F)c(-c2cc(=O)c3c(F)cc(F)cc3[nH]2)c1 [FTX-6822, 3-(5,7-difluoro-4-oxo-1,4-dihydro-2-quinolyl)-4-fluorobenzonitrile] |
| 0.2 ± 0.03 µM | > 100 µM | > 100 µM |  | CS(=O)(=O)c1ccc(C#N)cc1-c1cc(=O)c2c(F)cc(F)cc2[nH]1 [FX-909, 3-(5,7-difluoro-4-oxo-1,4-dihydroquinolin-2-yl)-4-(methylsulfonyl)benzonitrile] |
